Measurements reported in publication PMC11678425, “(-)-Syringaresinol Exerts an Antidepressant-like Activity in Mice by Noncompetitive Inhibition of the Serotonin Transporter” (Pharmaceuticals, 2024).

What was measured:
[1] = test system: CUMS mice; assay: Tail suspension test (TST) in CUMS mice; assay type: in vivo, mouse
Experimental: C57BL/6 adult (6–8 weeks, body weight, 18–22 g) male mice were maintained and handled in a standard condition at the Experimental Animal Center of Southern Medical University (Guangzhou, China). Animal use was approved by the Animal Use and Care Committee of Southern Medical University (approved code: SMUL2021177, approved date: 12 December 2021). The CUMS procedure was carried out according to a protocol described previously. Except for those in the control group, mice were randomly exposed to two mild unpredictable stressors per day for 3 weeks. The stressors included water deprivation, restraint, tilted cage, wet/no bedding, rotation, peppermint, noise, and inverted light off/on. Mice in the control group were group housed without any stressors throughout the procedure. […] NSFT was performed after 16 h food deprivation, as described previously. The mouse was placed in an open field (24 × 40 × 14 cm), where a new chow was put in the center, and the latency time to bite food was counted over 10 min. Home cage feeding within a 20 min period was measured after the test. FST was carried out according to a protocol described previously. The mouse was placed into a beaker (Bomex, Beijing, China) with a height of 18 cm filled with water (22 ± 1 °C) for 6 min. The immobile time was measured during minutes 2–6. TST was performed according to a previous description. The mouse was suspended from a hook that hung from a suspension bar by placing a piece of adhesive tape on its tail about 1 cm away from the tip. The immobile time during minutes 2–6 was measured.

[2] = biological target: T1, hSERT F556A (Homo sapiens, UniProt P31645, F556A); assay: APP^+ uptake, hSERT F556A; assay type: cell-based; conditions: S2 site mutant, read-out: SYR IC50 for Transport
T1 construct: forward and reverse primers were used to amplify a full-length hSERT; expressed in transfected cells; host or cells: HeLa cells, transient, pcDNA3.1
T1 sequence (P31645 whole entry F556A): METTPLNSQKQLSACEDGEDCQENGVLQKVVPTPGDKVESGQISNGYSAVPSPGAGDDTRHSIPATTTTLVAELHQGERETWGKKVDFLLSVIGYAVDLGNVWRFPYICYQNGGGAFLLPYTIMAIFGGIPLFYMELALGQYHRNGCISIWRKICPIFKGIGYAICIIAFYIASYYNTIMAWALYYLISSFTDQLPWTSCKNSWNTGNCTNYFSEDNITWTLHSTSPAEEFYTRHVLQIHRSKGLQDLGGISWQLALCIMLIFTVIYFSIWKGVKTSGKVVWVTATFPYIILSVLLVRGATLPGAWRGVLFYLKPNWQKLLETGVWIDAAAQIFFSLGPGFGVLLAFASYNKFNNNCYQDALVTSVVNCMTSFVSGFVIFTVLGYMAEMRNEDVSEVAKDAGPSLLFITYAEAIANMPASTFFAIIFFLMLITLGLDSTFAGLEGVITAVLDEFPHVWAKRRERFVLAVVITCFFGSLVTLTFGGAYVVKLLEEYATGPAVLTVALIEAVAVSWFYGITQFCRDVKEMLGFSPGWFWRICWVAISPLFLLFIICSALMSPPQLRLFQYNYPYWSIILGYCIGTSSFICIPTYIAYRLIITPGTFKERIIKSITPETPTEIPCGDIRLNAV

[3] = biological target: T2, hSERT L563A (Homo sapiens, UniProt P31645, L563A); assay: ASP^+ binding, hSERT L563A; conditions: S2 site mutant, read-out: SYR IC50 for Binding
T2 construct: forward and reverse primers were used to amplify a full-length hSERT; expressed in transfected cells; host or cells: HeLa
T2 sequence (P31645 whole entry L563A): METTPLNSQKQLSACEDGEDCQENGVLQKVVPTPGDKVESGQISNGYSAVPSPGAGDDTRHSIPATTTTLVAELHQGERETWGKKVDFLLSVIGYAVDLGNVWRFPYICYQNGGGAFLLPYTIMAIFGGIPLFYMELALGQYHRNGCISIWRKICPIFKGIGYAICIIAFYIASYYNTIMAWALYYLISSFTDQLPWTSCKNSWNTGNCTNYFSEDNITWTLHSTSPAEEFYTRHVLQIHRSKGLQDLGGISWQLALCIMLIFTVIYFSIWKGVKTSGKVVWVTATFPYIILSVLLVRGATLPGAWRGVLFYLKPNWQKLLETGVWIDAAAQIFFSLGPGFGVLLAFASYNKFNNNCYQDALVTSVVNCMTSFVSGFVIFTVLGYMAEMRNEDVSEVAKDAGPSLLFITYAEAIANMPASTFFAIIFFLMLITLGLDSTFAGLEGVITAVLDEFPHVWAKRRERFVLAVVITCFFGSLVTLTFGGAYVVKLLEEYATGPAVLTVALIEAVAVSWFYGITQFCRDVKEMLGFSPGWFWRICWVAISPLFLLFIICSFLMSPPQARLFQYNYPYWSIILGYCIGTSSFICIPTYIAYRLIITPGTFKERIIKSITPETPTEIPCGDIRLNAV

[4] = biological target: T3, hSERT E494Q (Homo sapiens, UniProt P31645, E494Q); assay: ASP^+ binding, hSERT E494Q; conditions: S2 site mutant, read-out: SYR IC50 for Binding
T3 construct: forward and reverse primers were used to amplify a full-length hSERT; expressed in transfected cells; host or cells: HeLa cells, transient, pcDNA3.1
T3 sequence (P31645 whole entry E494Q): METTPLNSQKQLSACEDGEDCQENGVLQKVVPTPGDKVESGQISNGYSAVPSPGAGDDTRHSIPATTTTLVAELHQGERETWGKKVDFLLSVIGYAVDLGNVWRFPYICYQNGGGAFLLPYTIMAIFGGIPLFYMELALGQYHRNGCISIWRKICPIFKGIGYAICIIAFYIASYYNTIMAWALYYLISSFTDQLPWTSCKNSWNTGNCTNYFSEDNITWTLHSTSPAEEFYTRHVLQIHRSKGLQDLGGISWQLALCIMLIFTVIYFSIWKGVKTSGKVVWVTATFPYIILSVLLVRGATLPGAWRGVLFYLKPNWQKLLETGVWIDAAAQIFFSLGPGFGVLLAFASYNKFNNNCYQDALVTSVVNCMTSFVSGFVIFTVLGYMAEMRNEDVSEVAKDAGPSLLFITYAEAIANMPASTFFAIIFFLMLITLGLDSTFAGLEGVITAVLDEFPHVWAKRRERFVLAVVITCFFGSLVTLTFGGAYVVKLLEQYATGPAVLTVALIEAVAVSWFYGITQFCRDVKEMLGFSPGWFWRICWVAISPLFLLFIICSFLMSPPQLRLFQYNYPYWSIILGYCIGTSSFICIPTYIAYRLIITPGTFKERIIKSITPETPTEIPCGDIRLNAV

[5] = biological target: T4, hSERT T497A (Homo sapiens, UniProt P31645, T497A); assay: ASP^+ binding, hSERT T497A; conditions: S2 site mutant, read-out: SYR IC50 for Binding
T4 construct: forward and reverse primers were used to amplify a full-length hSERT; expressed in transfected cells; host or cells: HeLa cells, transient, pcDNA3.1
T4 sequence (P31645 whole entry T497A): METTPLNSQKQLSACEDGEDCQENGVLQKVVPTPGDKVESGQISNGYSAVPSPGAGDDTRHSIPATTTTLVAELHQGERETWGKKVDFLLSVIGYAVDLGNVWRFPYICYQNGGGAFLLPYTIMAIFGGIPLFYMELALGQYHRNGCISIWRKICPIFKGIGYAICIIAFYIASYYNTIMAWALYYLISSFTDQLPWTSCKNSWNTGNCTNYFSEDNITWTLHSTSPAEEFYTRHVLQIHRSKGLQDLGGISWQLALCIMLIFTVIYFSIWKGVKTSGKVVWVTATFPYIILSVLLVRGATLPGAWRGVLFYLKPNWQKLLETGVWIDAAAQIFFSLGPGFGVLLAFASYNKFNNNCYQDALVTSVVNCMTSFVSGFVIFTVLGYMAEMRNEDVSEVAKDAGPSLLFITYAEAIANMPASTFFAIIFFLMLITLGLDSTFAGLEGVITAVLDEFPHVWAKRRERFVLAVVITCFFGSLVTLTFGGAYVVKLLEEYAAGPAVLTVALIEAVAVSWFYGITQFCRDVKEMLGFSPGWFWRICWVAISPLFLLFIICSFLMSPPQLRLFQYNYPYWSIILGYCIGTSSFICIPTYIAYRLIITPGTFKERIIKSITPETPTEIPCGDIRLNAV

[6] = test system: BDNF, PSD-95, GluA1, and vGluT1; assay: Immunoblot of synaptic proteins in hippocampus of CUMS mice; assay type: in vivo, mouse; conditions: same dosage as fluoxetine (10 mg/kg i.p.)
From the text: Figure 8 SYR effects on the expression of c-Fos and synaptic proteins in the hippocampus. (A) Representative immunohistochemical images of c-Fos expression in the hippocampus with the indicated treatments. (B) Quantitative analysis for hippocampal c-Fos expression with various treatments. Protein expression level is expressed as a percentage of c-Fos fluorescence measured in the control group. Bars represent the mean ± SEM (n = 4). ** p < 0.01 compared with the control or CUMS group by one-way ANOVA followed by post hoc tests. (C) Representative immunoblots of the synaptic proteins BDNF, PSD-95, GluA1, and vGluT1 with various treatments. (D–G) Quantification of the expression of synaptic proteins BDNF (D), PSD-95 (E), GluA1 (F), and vGluT1 (G). The expression level is expressed as a percentage of the integrated density obtained from the control group. Bars represent the mean ± SEM (n = 4). * p < 0.05, ** p < 0.01 by one-way ANOVA followed by post hoc tests.
Synaptic proteins were extracted from mPFC or hippocampus tissues using RIPA lysis buffer, respectively. Expression of the indicated proteins under various treatments was then analyzed by immunoblotting, as previously reported. […] Quantification of immunoreactive protein bands was performed using Image J v1.53u, and GAPDH was used as an internal reference to normalize expression levels of those proteins, respectively.

[7] = test system: hSERT S2 mutants; assay: APP^+ uptake or ASP^+ binding, all S2 mutants compared with WT; assay type: cell-based, human; conditions: all S2 mutants tested
Experimental: HeLa cells were cultured in Dulbecco’s Modified Eagle’s Medium supplemented with 10% fetal bovine serum, 100 units/mL penicillin, and 100 μg/mL streptomycin at 37 °C in a humidified 5% CO2 incubator. Cells grown at ~70% confluence in a 6 cm culture dish were transfected with hSERT cDNA in pcDNA3.1 by lipofectamine 2000. Transfected cells were incubated for 12 h at 37 °C with 5% CO2 and then transferred into 96-well plates. After being grown for an additional 12–16 h, the cells were then assayed for APP^+ uptake or ASP^+ binding.
Measurement of transport or ligand binding activity of SERT was performed by using its fluorescent substrate (APP^+) or ligand (ASP^+), respectively. The cells transiently expressing WT or mutants of hSERT were applied for various treatments. […] APP^+ uptake was measured by adding 100 μL KRH buffer containing 2 μM APP^+ and incubating for 5 min at 22 °C. […] The extent of APP^+ accumulated in the cells was determined by fluorescence spectrometry with an Infinite 200 Pro microplate reader (Tecan, Männedorf, Switzerland).
ASP^+ binding to SERT expressed on the cell surface was measured with digitonin-permeabilized cells as described previously. […] After removing excess ASP^+ by 3× rapid washing, ASP^+ fluorescence retained in the cell membrane was determined by fluorescence spectrometry. […]

[8] = biological target: T5, hSERT S559A (Homo sapiens, UniProt P31645, S559A); assay: ASP^+ binding, hSERT S559A; conditions: S2 site mutant, read-out: SYR IC50 for Binding
T5 construct: forward and reverse primers were used to amplify a full-length hSERT; expressed in transfected cells; host or cells: HeLa cells, transient, pcDNA3.1
T5 sequence (P31645 whole entry S559A): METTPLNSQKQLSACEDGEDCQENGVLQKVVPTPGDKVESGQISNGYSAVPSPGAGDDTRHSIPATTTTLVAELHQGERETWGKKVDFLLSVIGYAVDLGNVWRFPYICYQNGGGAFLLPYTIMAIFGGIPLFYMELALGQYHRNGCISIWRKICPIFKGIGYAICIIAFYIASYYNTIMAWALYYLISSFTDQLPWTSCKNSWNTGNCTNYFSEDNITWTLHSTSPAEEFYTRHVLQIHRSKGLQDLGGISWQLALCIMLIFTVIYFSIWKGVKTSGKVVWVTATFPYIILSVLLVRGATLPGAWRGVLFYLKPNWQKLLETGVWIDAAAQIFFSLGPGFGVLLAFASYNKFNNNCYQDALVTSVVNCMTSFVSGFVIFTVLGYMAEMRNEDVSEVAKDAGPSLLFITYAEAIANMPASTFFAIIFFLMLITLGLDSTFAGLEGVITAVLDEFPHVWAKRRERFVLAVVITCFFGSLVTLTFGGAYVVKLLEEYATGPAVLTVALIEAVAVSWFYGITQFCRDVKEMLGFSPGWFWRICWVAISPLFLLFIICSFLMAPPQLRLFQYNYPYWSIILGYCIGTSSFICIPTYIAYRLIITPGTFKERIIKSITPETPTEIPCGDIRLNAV

In the case of COc1cc([C@@H]2OC[C@@H]3[C@H]2CO[C@H]3c2cc(OC)c(O)c(OC)c2)cc(OC)c1O [SYR, (-)-syringaresinol], the “CUMS-induced increase in immobility time in TST” value ([1]; 5 mg/kg, i.p., once per day day 7 to 21) is reported as “effectively attenuate”, the “effect in TST” value ([1]; 10 or 20 mg/kg (i.p.)) is reported as “remarkable antidepressant-like effects” and the IC50 [2] is reported as 7.39 ± 1.12 µM. It also gave an IC50 [3] of 39 ± 0.92 µM, an IC50 [4] of 9.77 ± 0.78 µM and an IC50 [5] of 43.7 ± 2.6 µM. The “CUMS-induced decrease in expression of synaptic proteins in the hippocampus” value [6] was “effectively alleviate”, the “increase of SYR IC50 for APP^+ uptake or ASP^+ binding compared with WT” value [7] was “more than 10 fold” and the IC50 [8] was 36.8 ± 2.49 µM.
